Measured values as given in patent US20200032271A1, “COMBINATION THERAPY WITH LIPOSOMAL ANTISENSE OLIGONUCLEOTIDES” (Bio-Path Holdings, Inc., priority 2016, published 2020).
Marks after values point to notes of the source that are not given here. [PEt] = P-ethoxy (ethyl phosphotriester) internucleoside linkage

Assay: Adverse events in study 2003-0578 (NCI CTCAE grading)
[1] = MDS at enrollment (n = 4), all treatment groups

In the case of “BP1001: liposome-incorporated P-ethoxy antisense oligodeoxynucleotide (5′-ATATTTGGCGATGGCTTC-3′, SEQ ID NO: 1) specific to grb2 mRNA, in neutral DOPC liposomes (DNA, all [PEt], methylation of C not given here; incorporated in neutral DOPC liposomes)”, the “Hyponatremia ≥Grade 3, number of patients” value [1] was 0, the “Hypotension ≥Grade 3, number of patients” value [1] was 0 and the “Hypovolemia ≥Grade 3, number of patients” value [1] was 0. The “Hypoxia ≥Grade 3, number of patients” value [1] was 0, the “Investigations ≥Grade 3, number of patients” value [1] was 0 and the “Leukocytosis ≥Grade 3, number of patients” value [1] was 0. For the same substance, the “Metabolism and nutritional disorders ≥Grade 3, number of patients” value [1] was 0, the “Multi-organ failure ≥Grade 3, number of patients” value [1] was 0 and the “Musculoskeletal and connective tissue disorders ≥Grade 3, number of patients” value [1] was 0. For the same substance, the “Neoplasms benign, malignant, and unspecified (incl. cysts and polyps) ≥Grade 3, number of patients” value [1] was 0, the “Patients with AEs ≥Grade 3, number of patients” value [1] was 1 and the “Penile Pain ≥Grade 3, number of patients” value [1] was 0. The “Platelet count decreased ≥Grade 3, number of patients” value [1] was 0, the “Pleural Effusions ≥Grade 3, number of patients” value [1] was 0 and the “Pneumonia ≥Grade 3, number of patients” value [1] was 0. The “Psychiatric disorders ≥Grade 3, number of patients” value [1] was 0, the “Renal and urinary disorders ≥Grade 3, number of patients” value [1] was 0 and the “Reproductive system and breast disorders ≥Grade 3, number of patients” value [1] was 0. The “Respiratory distress ≥Grade 3, number of patients” value [1] was 0, the “Respiratory failure ≥Grade 3, number of patients” value [1] was 0 and the “Respiratory, thoracic, and mediastinal disorders ≥Grade 3, number of patients” value [1] was 0. For the same substance, the “Tumor lysis syndrome ≥Grade 3, number of patients” value [1] was 0, the “Vascular disorders ≥Grade 3, number of patients” value [1] was 0 and the “Blood and lymphatic system disorders ≥Grade 3, total events” value (all patients (N = 39)) was 12. The “Blood and lymphatic system disorders ≥Grade 3, total patients” value (all patients (N = 39)) was 11, the “Cardiac disorders ≥Grade 3, total events” value (all patients (N = 39)) was “disorders (3/3)” and the “Cardiac disorders ≥Grade 3, total patients” value (all patients (N = 39)) was “disorders (3/3)”. For the same substance, the “General disorders and administration site conditions ≥Grade 3, total events” value (all patients (N = 39)) was “(5/5)”, the “General disorders and administration site conditions ≥Grade 3, total patients” value (all patients (N = 39)) was “(5/5)” and the “Hepatobiliary disorders ≥Grade 3, total events” value (all patients (N = 39)) was “disorders (2/2)”. The “Hepatobiliary disorders ≥Grade 3, total patients” value (all patients (N = 39)) was “disorders (2/2)”, the “Investigations ≥Grade 3, total events” value (all patients (N = 39)) was 3 and the “Investigations ≥Grade 3, total patients” value (all patients (N = 39)) was 2. The “Metabolism and nutritional disorders ≥Grade 3, total events” value (all patients (N = 39)) was 19, the “Metabolism and nutritional disorders ≥Grade 3, total patients” value (all patients (N = 39)) was 12 and the “Neoplasms benign, malignant, and unspecified (incl. cysts and polyps) ≥Grade 3, total events” value (all patients (N = 39)) was “polyps) (2/2)”. For the same substance, the “Neoplasms benign, malignant, and unspecified (incl. cysts and polyps) ≥Grade 3, total patients” value (all patients (N = 39)) was “polyps) (2/2)”, the “Patients with AEs ≥Grade 3, total events” value (all patients (N = 39)) was 91 and the “Patients with AEs ≥Grade 3, total patients” value (all patients (N = 39)) was 28. For the same substance, the “Renal and urinary disorders ≥Grade 3, total events” value (all patients (N = 39)) was “disorders (4/4)”, the “Renal and urinary disorders ≥Grade 3, total patients” value (all patients (N = 39)) was “disorders (4/4)” and the “Respiratory, thoracic, and mediastinal disorders ≥Grade 3, total events” value (all patients (N = 39)) was “disorders (7/7)”. The “Respiratory, thoracic, and mediastinal disorders ≥Grade 3, total patients” value (all patients (N = 39)) was “disorders (7/7)”, the “Vascular disorders ≥Grade 3, total events” value (all patients (N = 39)) was “disorders (2/2)” and the “Vascular disorders ≥Grade 3, total patients” value (all patients (N = 39)) was “disorders (2/2)”. For the same substance, the “AML progression, number of patients” value (monotherapy 5 mg/m^2 (n = 13)) was 10, the “Abdominal Pain ≥Grade 3, number of patients” value (monotherapy 5 mg/m^2 (n = 13)) was 0 and the “Acidosis ≥Grade 3, number of patients” value (monotherapy 5 mg/m^2 (n = 13)) was 2. The “Acute kidney injury ≥Grade 3, number of patients” value (monotherapy 5 mg/m^2 (n = 13)) was 3, the “Asthenia ≥Grade 3, number of patients” value (monotherapy 5 mg/m^2 (n = 13)) was 1 and the “Back Pain ≥Grade 3, number of patients” value (monotherapy 5 mg/m^2 (n = 13)) was 0. The “Blood and lymphatic system disorders ≥Grade 3, number of patients” value (monotherapy 5 mg/m^2 (n = 13)) was 5, the “Cardiac disorders ≥Grade 3, number of patients” value (monotherapy 5 mg/m^2 (n = 13)) was 3 and the “Cataract ≥Grade 3, number of patients” value (monotherapy 5 mg/m^2 (n = 13)) was 0. For the same substance, the “Dyspnea ≥Grade 3, number of patients” value (monotherapy 5 mg/m^2 (n = 13)) was 0, the “Extremity Lower Edema ≥Grade 3, number of patients” value (monotherapy 5 mg/m^2 (n = 13)) was 0 and the “Eye disorders ≥Grade 3, number of patients” value (monotherapy 5 mg/m^2 (n = 13)) was 0. The “Febrile neutropenia ≥Grade 3, number of patients” value (monotherapy 5 mg/m^2 (n = 13)) was 2, the “Gastrointestinal disorders ≥Grade 3, number of patients” value (monotherapy 5 mg/m^2 (n = 13)) was 0 and the “General disorders and administration site conditions ≥Grade 3, number of patients” value (monotherapy 5 mg/m^2 (n = 13)) was 3. The “Hallucinations ≥Grade 3, number of patients” value (monotherapy 5 mg/m^2 (n = 13)) was 0, the “Heart failure ≥Grade 3, number of patients” value (monotherapy 5 mg/m^2 (n = 13)) was 3 and the “Hepatic failure ≥Grade 3, number of patients” value (monotherapy 5 mg/m^2 (n = 13)) was 1. For the same substance, the “Hepatobiliary disorders ≥Grade 3, number of patients” value (monotherapy 5 mg/m^2 (n = 13)) was 1, the “Hypocalcemia ≥Grade 3, number of patients” value (monotherapy 5 mg/m^2 (n = 13)) was 1 and the “Hypoglycemia ≥Grade 3, number of patients” value (monotherapy 5 mg/m^2 (n = 13)) was 2. For the same substance, the “Hypokalemia ≥Grade 3, number of patients” value (monotherapy 5 mg/m^2 (n = 13)) was 1, the “Hyponatremia ≥Grade 3, number of patients” value (monotherapy 5 mg/m^2 (n = 13)) was 1 and the “Hypotension ≥Grade 3, number of patients” value (monotherapy 5 mg/m^2 (n = 13)) was 2. For the same substance, the “Hypovolemia ≥Grade 3, number of patients” value (monotherapy 5 mg/m^2 (n = 13)) was 0, the “Hypoxia ≥Grade 3, number of patients” value (monotherapy 5 mg/m^2 (n = 13)) was 1 and the “Investigations ≥Grade 3, number of patients” value (monotherapy 5 mg/m^2 (n = 13)) was 1. For the same substance, the “Leukocytosis ≥Grade 3, number of patients” value (monotherapy 5 mg/m^2 (n = 13)) was 3, the “Metabolism and nutritional disorders ≥Grade 3, number of patients” value (monotherapy 5 mg/m^2 (n = 13)) was 12 and the “Multi-organ failure ≥Grade 3, number of patients” value (monotherapy 5 mg/m^2 (n = 13)) was 2. The “Musculoskeletal and connective tissue disorders ≥Grade 3, number of patients” value (monotherapy 5 mg/m^2 (n = 13)) was 0, the “Neoplasms benign, malignant, and unspecified (incl. cysts and polyps) ≥Grade 3, number of patients” value (monotherapy 5 mg/m^2 (n = 13)) was 0 and the “Patients with AEs ≥Grade 3, number of patients” value (monotherapy 5 mg/m^2 (n = 13)) was 10. For the same substance, the “Penile Pain ≥Grade 3, number of patients” value (monotherapy 5 mg/m^2 (n = 13)) was 0, the “Platelet count decreased ≥Grade 3, number of patients” value (monotherapy 5 mg/m^2 (n = 13)) was 1 and the “Pneumonia ≥Grade 3, number of patients” value (monotherapy 5 mg/m^2 (n = 13)) was 0. For the same substance, the “Psychiatric disorders ≥Grade 3, number of patients” value (monotherapy 5 mg/m^2 (n = 13)) was 0, the “Renal and urinary disorders ≥Grade 3, number of patients” value (monotherapy 5 mg/m^2 (n = 13)) was 3 and the “Reproductive system and breast disorders ≥Grade 3, number of patients” value (monotherapy 5 mg/m^2 (n = 13)) was 0. For the same substance, the “Respiratory distress ≥Grade 3, number of patients” value (monotherapy 5 mg/m^2 (n = 13)) was 1, the “Respiratory failure ≥Grade 3, number of patients” value (monotherapy 5 mg/m^2 (n = 13)) was 2 and the “Respiratory, thoracic, and mediastinal disorders ≥Grade 3, number of patients” value (monotherapy 5 mg/m^2 (n = 13)) was 2. The “Tumor lysis syndrome ≥Grade 3, number of patients” value (monotherapy 5 mg/m^2 (n = 13)) was 3, the “Vascular disorders ≥Grade 3, number of patients” value (monotherapy 5 mg/m^2 (n = 13)) was 2 and the “AML progression, number of patients” value (monotherapy 10 mg/m^2 (n = 6)) was 4. The “Abdominal Pain ≥Grade 3, number of patients” value (monotherapy 10 mg/m^2 (n = 6)) was 0, the “Acidosis ≥Grade 3, number of patients” value (monotherapy 10 mg/m^2 (n = 6)) was 1 and the “Acute kidney injury ≥Grade 3, number of patients” value (monotherapy 10 mg/m^2 (n = 6)) was 0. For the same substance, the “Asthenia ≥Grade 3, number of patients” value (monotherapy 10 mg/m^2 (n = 6)) was 0, the “Back Pain ≥Grade 3, number of patients” value (monotherapy 10 mg/m^2 (n = 6)) was 0 and the “Blood and lymphatic system disorders ≥Grade 3, number of patients” value (monotherapy 10 mg/m^2 (n = 6)) was 2. The “Cardiac disorders ≥Grade 3, number of patients” value (monotherapy 10 mg/m^2 (n = 6)) was 0, the “Cataract ≥Grade 3, number of patients” value (monotherapy 10 mg/m^2 (n = 6)) was 0 and the “Dyspnea ≥Grade 3, number of patients” value (monotherapy 10 mg/m^2 (n = 6)) was 0. For the same substance, the “Extremity Lower Edema ≥Grade 3, number of patients” value (monotherapy 10 mg/m^2 (n = 6)) was 0, the “Eye disorders ≥Grade 3, number of patients” value (monotherapy 10 mg/m^2 (n = 6)) was 0 and the “Febrile neutropenia ≥Grade 3, number of patients” value (monotherapy 10 mg/m^2 (n = 6)) was 1^a. For the same substance, the “Gastrointestinal disorders ≥Grade 3, number of patients” value (monotherapy 10 mg/m^2 (n = 6)) was 0, the “General disorders and administration site conditions ≥Grade 3, number of patients” value (monotherapy 10 mg/m^2 (n = 6)) was 1 and the “Hallucinations ≥Grade 3, number of patients” value (monotherapy 10 mg/m^2 (n = 6)) was 0. For the same substance, the “Heart failure ≥Grade 3, number of patients” value (monotherapy 10 mg/m^2 (n = 6)) was 0, the “Hepatic failure ≥Grade 3, number of patients” value (monotherapy 10 mg/m^2 (n = 6)) was 1 and the “Hepatobiliary disorders ≥Grade 3, number of patients” value (monotherapy 10 mg/m^2 (n = 6)) was 1. The “Hypocalcemia ≥Grade 3, number of patients” value (monotherapy 10 mg/m^2 (n = 6)) was 0, the “Hypoglycemia ≥Grade 3, number of patients” value (monotherapy 10 mg/m^2 (n = 6)) was 0 and the “Hypokalemia ≥Grade 3, number of patients” value (monotherapy 10 mg/m^2 (n = 6)) was 1. For the same substance, the “Hyponatremia ≥Grade 3, number of patients” value (monotherapy 10 mg/m^2 (n = 6)) was 0 and the “Hypotension ≥Grade 3, number of patients” value (monotherapy 10 mg/m^2 (n = 6)) was 0.
